In patent US6770650B2, “Cyclic amine derivatives-CCR-3 receptor antagonists” (Syntex (U.S.A.) LLC, priority 1997, dated 2004):
Structures can show the parent of a compound that is named as a salt.

Experiments:
CCR-3 receptor = target: T1, CCR-3 receptor (Homo sapiens, UniProt P51677); test: CCR-3 Receptor Binding Assay, inhibition of 125I eotaxin binding to CCR-3 L1.2 transfectant cells; details: concentration required to reduce 125I-eotaxin binding to the CCR-3 L1.2 transfected cells by 50%
T1 construct: expressed in transfected cells; host or cells: L1.2 cells (murine pre-B lymphoma line)
T1 sequence (P51677 1-355): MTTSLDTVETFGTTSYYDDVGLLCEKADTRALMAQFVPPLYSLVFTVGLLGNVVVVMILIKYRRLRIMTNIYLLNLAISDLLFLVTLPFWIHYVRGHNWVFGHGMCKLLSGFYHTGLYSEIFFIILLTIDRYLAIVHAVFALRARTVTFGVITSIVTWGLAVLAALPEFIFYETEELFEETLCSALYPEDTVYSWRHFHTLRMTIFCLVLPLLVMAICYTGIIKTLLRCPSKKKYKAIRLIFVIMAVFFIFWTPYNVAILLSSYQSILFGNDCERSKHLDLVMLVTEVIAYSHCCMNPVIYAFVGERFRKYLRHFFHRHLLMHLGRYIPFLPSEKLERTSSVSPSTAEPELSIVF
Experimental: The CCR-3 antagonistic activity of the compounds of the invention was determined by their ability to inhibit the binding of ^125I eotaxin to CCR-3 L1.2 transfectant cells ((see Ponath, P. D. et al., J. Exp. Med., Vol. 183, 2437-2448, (1996)).
The assay was performed in Costar 96-well polypropylene round bottom plates. Test compounds were dissolved in DMSO and then diluted with binding buffer (50 mM HEPES, 1 mM CaCl2, 5 mM MgCl2, 0.5% bovine serum albumin (BSA), 0.02% sodium azide, pH 7.24) such that the final DMSO concentration was 2%. 25 μl of the test solution or only buffer with DMSO (control samples) was added to each well, followed by the addition of 25 μl of ^125I-eotaxin ([…]) (NEX314, New England Nuclear, Boston, Mass.) and 1.5×10^5 of the CCR-3 L1.2 transfected cells in 25 μl binding buffer. The final reaction volume was 75 μl.
After incubating the reaction mixture for 1 h at room temperature, the reaction was terminated by filtering the reaction mixture through polyethylenimine treated Packard Unifilter GF/C filter plate (Packard, Chicago, Ill.). The filters were washed four times with ice cold wash buffer containing 10 mm HEPES and 0.5M sodium chloride (pH 7.2) and dried at 65° C. for approximately 10 min. 25 μl/well of Microscint-20™ scintillation fluid (Packard) was added and the radioactivity retained on the filters was determined by using the Packard TopCount™.
The IC50 value (concentration of test compound required to reduce ^125I-eotaxin binding to the CCR-3 L1.2 transfected cells by 50%) for some of the compounds of the invention was: […]

Molecule	IC50 (CCR-3 receptor) [nM]	melting point [°C]
CC(C)(C)[C@@H](CN1CCC(Cc2ccc(Cl)c(Cl)c2)CC1)NC(=O)c1ccc(Cl)cc1 [compound 61]	1760	63 to 68
CC(C)C(CN1CCN(Cc2ccc(Cl)cc2)CC1)NC(=O)Nc1ccccc1 (stereo not shown) [compound 89]	1680	
CC(C)C(CN1CCN(Cc2ccc(Cl)c(Cl)c2)CC1)NC(=O)c1ccccn1.Cl.Cl (racemic) [compound 7, N-{1(RS)-[4-(3,4-Dichlorobenzyl)piperazin-1-ylmethyl]-2-methylpropyl}picolinamide dihydrochloride salt]	415	226.2 to 229.9
COc1ccccc1NC(=S)NC(CN1CCN(Cc2ccc(Cl)c(Cl)c2)CC1)C(C)C (stereo not shown) [compound 110]	3050	
Cc1ccc(C(=O)N[C@H](CN2CCC(Cc3ccc(Cl)c(Cl)c3)CC2)C(C)C)s1 (as salt: HCl) [compound 71, N-{1-(R)-[4-(Dichlorobenzyl)piperidin-1-ylmethyl]-2-methylpropyl}-5-methylthiophene-2-carboxamide Hydrochloride Salt]		45 to 47.5
Cc1ccc(C(=O)N[C@H](CN2CCN(Cc3ccc(Cl)c(Cl)c3)CC2)C(C)(C)C)cc1.Cl.Cl		238 to 242
Cc1ccc(NC(=O)N[C@H](CN2CCC(Cc3ccc(Cl)c(Cl)c3)CC2)C(C)(C)C)cc1 [compound 100]	2470	
CC(C)C(CN1CCN(Cc2ccc(Cl)cc2)CC1)NC(=S)Nc1cccc2ccccc12 (stereo not shown) [compound 109]	2840	
CC(C)[C@@H](CN1CCN(Cc2ccc(Cl)c(Cl)c2)CC1)NC(=O)c1ccc2ccccc2c1 [compound 19, N-{1(S)-[4-(3,4-Dichlorobenzyl)piperazin-1-ylmethyl]-2-methylpropyl}-2-naphthaleneamide]	945	
Cc1ccc(C(=O)N[C@H](CN2CCC(Cc3ccc(Cl)c(Cl)c3)CC2)C(C)C)cc1 (as salt: HCl) [compound 57, N-{1-(S)-[4-(3,4-Dichlorobenzyl)piperidin-1-ylmethyl]-2-methylpropyl}-4-methylbenzamide]		87 to 90
O=C(N[C@@H](CN1CCN(Cc2ccc(Cl)c(Cl)c2)CC1)C1CCCCC1)c1ccc(Cl)cc1 [compound 35, N-{1(R)-cyclohexyl-2-[4-(3,4-dichlorobenzyl)piperazin-1-yl]ethyl}-4-chloro-benzamide]		149 to 155
CC(=O)c1cccc(NC(=O)NC(CN2CCN(Cc3ccc(Cl)c(Cl)c3)CC2)C(C)C)c1 (stereo not shown) [compound 91]	1890	
CC(C)C(CN1CCN(Cc2ccc(Cl)c(Cl)c2)CC1)NC(=O)Nc1cccc(Br)c1 (stereo not shown) [compound 88]	1470	
CC(C)C(CN1CCN(Cc2ccc(Cl)c(Cl)c2)CC1)NC(=O)c1ccncc1 (stereo not shown) (as salt: HCl) [compound 20]		150 to 153
1-{1(RS)-[4-(4-Chlorobenzyl)piperazin-1-yl]-2-methylpropyl}-3-(3-methylphenyl)-2-thiourea [compound 107]	1140	
CCCC(CN1CCN(Cc2ccc(Cl)c(Cl)c2)CC1)NC(=O)c1ccc(C)cc1 (stereo not shown) [compound 23]	1330	
CC(C)C(CN1CCN(Cc2ccc(Cl)c(Cl)c2)CC1)NS(=O)(=O)c1ccc(F)cc1 (stereo in doubt) [compound 117, N-{1(R)-[4-(3,4-Dichlorobenzyl)piperazin-1-ylmethyl]-2-methylpropyl}-4-flourobenzenesulfonamide]	1330	

Molecule	IC50 (CCR-3 receptor) [nM]	melting point [°C]
COc1ccc(C(=O)N[C@H](CN2CCN(Cc3ccc(Cl)c(Cl)c3)CC2)C(C)C)cc1.Cl.Cl		222.5 to 223
CC(C)C(CN1CCN(Cc2ccc(Cl)c(Cl)c2)CC1)NC(=O)Cc1cccs1 (racemic) [compound 25, N-{1(RS)-[4-(3,4-Dichlorobenzyl)piperazin-1-ylmethyl]-2-methylpropyl}-2-(thiophene-2-yl)acetamide]	1460	
CC(C)C(CN1CCN(Cc2ccc(Cl)cc2)CC1)NS(=O)(=O)c1ccc(Cl)cc1 (racemic) [compound 118]	1500	
CC(C)C(CN1CCN(Cc2ccc(Cl)c(Cl)c2)CC1)NC(=O)c1ccncc1 (stereo not shown) [compound 20]	952	
COc1cccc(NC(=O)N[C@H](CN2CCC(Cc3ccc(Cl)c(Cl)c3)CC2)C(C)(C)C)c1 [compound 99]	2360	75.1 to 80.3
CCOc1ccccc1NC(=O)NC(CN1CCN(Cc2ccc(Cl)c(Cl)c2)CC1)C(C)C (stereo not shown) [compound 86]	1160	
Cc1ccc(C(=O)N2CCC[C@@H]2CN2CCN(Cc3ccc(Cl)c(Cl)c3)CC2)cc1 [compound 78, {1-(4-Methylbenzoyl)-2(R)-[4-(3,4-dichlorobenzyl)piperazin-1-ylmethyl]}pyrrolidine Dihydrochloride Salt]	5030	
Cc1ccc(NC(=O)N[C@H](CN2CCC(Cc3ccc(Cl)c(Cl)c3)CC2)C(C)(C)C)cc1 (as salt: HCl) [compound 100]		109.5 to 111
Cc1ccc(C(=O)N[C@H](CN2CCN(Cc3ccc(Cl)c(Cl)c3)CC2)C(C)C)cc1 [compound 8, N-{1(S)-[4-(3,4-Dichlorobenzyl)piperazin-1-ylmethyl]-2-methylpropyl}-4-methylbenzamide dihydrochloride salt]	240	
Cc1ccc(C(=O)N[C@H](CN2CCN(Cc3ccc(Cl)c(Cl)c3)CC2)C(C)C)cc1 (as salt: HCl) [compound 8, N-{1(S)-[4-(3,4-Dichlorobenzyl)piperazin-1-ylmethyl]-2-methylpropyl}-4-methylbenzamide dihydrochloride salt]		229 to 229.6
CC(C)C(CN1CCN(Cc2ccc(Cl)c(Cl)c2)CC1)NC(=O)c1ccc2ccccc2n1 (stereo not shown) [compound 24]	1370	
CC(C)C(CN1CCN(Cc2ccc(Cl)cc2)CC1)NS(=O)(=O)c1ccc(C(F)(F)F)cc1 (stereo not shown) [compound 121]	3520	
CCCC(CN1CCN(Cc2ccc(Cl)c(Cl)c2)CC1)NC(=O)c1ccc(C)cc1 (stereo not shown) (as salt: HCl) [compound 23]		199.5 to 203.5
Cc1ccc(C(=O)NC(CC2CCN(Cc3ccc(Cl)c(Cl)c3)CC2)C(C)C)cc1 (racemic) (as salt: hydrochloride) [compound 133]		233.9 to 235.5
COc1cccc(NC(=O)N[C@H](CN2CCN(Cc3ccc(Cl)c(Cl)c3)CC2)C(C)C)c1 (as salt: HCl) [compound 98, 1-{1(S)-[4-(3,4-Dichlorobenzyl)piperazin-1-ylmethyl]-2-methylpropyl}-3-(3-methoxyphenyl)urea]		97.5 to 99.5
Cc1ccc(C(=O)N2CCC[C@@H]2CN2CCN(Cc3ccc(Cl)c(Cl)c3)CC2)cc1 (as salt: HCl) [compound 78, {1-(4-Methylbenzoyl)-2(R)-[4-(3,4-dichlorobenzyl)piperazin-1-ylmethyl]}pyrrolidine Dihydrochloride Salt]		249.6 to 250.1
COc1cccc(NC(=O)NC(C(C)C)C2CCN(Cc3ccc(Cl)c(Cl)c3)CC2)c1 (racemic) [compound 132, 1-{1(RS)-[1-(3,4-Dichlorobenzyl)piperidin-4-yl]-2-methylpropyl}-3-(3-methoxyphenyl)urea]		161.4 to 161.8
